Data from patent publication US12121521B2, “Uses of salt-inducible kinase (SIK) inhibitors for treating osteoporosis” (The General Hospital Corporation, priority 2016, dated 2024).

Key:
Assay in all cases: ScanEDGE kinase panel (DiscoverX)
Assay type in all cases: binding
Conditions in all cases: read-out: % of control activity at 71 nM
ABL1 = target: T1, ABL1 (Homo sapiens, UniProt P00519)
T1 construct: T7 phage fusion (most kinases) or DNA tag for qPCR (HEK-293-made kinases); purchased DiscoverX (Fremont, CA); host or cells: E. coli BL21-derived host (T7 phage) or HEK-293
Description: (§1) ScanEDGE kinase assays paneling specificity across a panel of 96 representative kinases were performed by DiscoverX (Fremont, CA). For most assays, kinase-tagged T7 phage strains were grown in parallel in 24-well blocks in an E. coli host derived from the BL21 strain. Bacteria were grown to log phase and infected with T7 phage from frozen stock (MOI=0.4) and incubated with shaking at 32° C. until lysis (90-150 minutes). The lysates were centrifuged (6000×g) and filtered (0.2 μm) to remove cell debris. The remaining kinases were produced in HEK-293 cells and subsequently tagged with DNA for qPCR detection. […] The liganded beads were blocked with excess biotin and washing with blocking buffer (SeaBlock (Pierce), 1% BSA, 0.05% Tween 20, 1 mM DTT) to remove unbound ligand and to reduce non-specific phage binding. […] Test compounds were prepared as 40× stocks in 100% DMSO and directly diluted into the assay. All reactions were performed in polypropylene 384 well plates in a final volume of 40 μl. […] The kinase concentration in the eluates was measured by qPCR.

ALK = target: T2, ALK (Homo sapiens, UniProt Q9UM73)
T2 construct: T7 phage fusion (most kinases) or DNA tag for qPCR (HEK-293-made kinases); purchased DiscoverX (Fremont, CA); host or cells: E. coli BL21-derived host (T7 phage) or HEK-293
Description: as §1

AURKA = target: T3, AURKA (Homo sapiens, UniProt O14965)
T3 construct: T7 phage fusion (most kinases) or DNA tag for qPCR (HEK-293-made kinases); purchased DiscoverX (Fremont, CA); host or cells: E. coli BL21-derived host (T7 phage) or HEK-293
Description: as §1

BMPR2 = target: T4, BMPR2 (Homo sapiens, UniProt Q13873)
T4 construct: T7 phage fusion (most kinases) or DNA tag for qPCR (HEK-293-made kinases); purchased DiscoverX (Fremont, CA); host or cells: E. coli BL21-derived host (T7 phage) or HEK-293
T4 sequence (Q13873 27-1038): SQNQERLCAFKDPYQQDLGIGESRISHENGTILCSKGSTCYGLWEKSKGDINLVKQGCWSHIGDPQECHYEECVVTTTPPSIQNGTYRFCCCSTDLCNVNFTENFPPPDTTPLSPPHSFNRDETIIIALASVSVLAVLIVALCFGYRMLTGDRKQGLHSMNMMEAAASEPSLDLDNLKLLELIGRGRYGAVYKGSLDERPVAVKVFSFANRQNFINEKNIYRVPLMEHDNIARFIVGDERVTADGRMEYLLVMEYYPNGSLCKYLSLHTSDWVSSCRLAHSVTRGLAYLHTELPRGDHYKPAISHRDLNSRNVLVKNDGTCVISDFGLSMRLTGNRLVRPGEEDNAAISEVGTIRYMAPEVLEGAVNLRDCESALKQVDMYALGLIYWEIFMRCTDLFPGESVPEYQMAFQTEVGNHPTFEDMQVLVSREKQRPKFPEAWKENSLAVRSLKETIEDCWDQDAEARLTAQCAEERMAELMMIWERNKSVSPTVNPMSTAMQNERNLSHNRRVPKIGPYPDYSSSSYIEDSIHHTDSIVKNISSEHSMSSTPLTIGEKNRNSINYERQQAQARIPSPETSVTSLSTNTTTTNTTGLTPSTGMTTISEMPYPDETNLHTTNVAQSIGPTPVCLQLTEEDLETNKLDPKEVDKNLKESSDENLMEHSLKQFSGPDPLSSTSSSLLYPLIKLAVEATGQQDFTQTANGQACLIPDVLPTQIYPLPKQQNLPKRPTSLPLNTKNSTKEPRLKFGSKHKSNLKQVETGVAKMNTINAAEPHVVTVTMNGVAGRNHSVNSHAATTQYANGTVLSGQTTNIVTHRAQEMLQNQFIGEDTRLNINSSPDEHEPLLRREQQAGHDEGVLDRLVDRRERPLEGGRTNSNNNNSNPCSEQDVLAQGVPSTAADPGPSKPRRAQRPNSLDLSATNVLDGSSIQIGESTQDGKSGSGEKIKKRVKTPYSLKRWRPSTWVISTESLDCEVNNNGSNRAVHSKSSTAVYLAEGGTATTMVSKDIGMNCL
Description: as §1

BRAF = target: T5, BRAF (Homo sapiens, UniProt P15056)
T5 construct: T7 phage fusion (most kinases) or DNA tag for qPCR (HEK-293-made kinases); purchased DiscoverX (Fremont, CA); host or cells: E. coli BL21-derived host (T7 phage) or HEK-293
Description: as §1

BTK = target: T6, BTK (Homo sapiens, UniProt Q06187)
T6 construct: T7 phage fusion (most kinases) or DNA tag for qPCR (HEK-293-made kinases); purchased DiscoverX (Fremont, CA); host or cells: E. coli BL21-derived host (T7 phage) or HEK-293
T6 sequence (Q06187 whole entry, the tested form may be a part): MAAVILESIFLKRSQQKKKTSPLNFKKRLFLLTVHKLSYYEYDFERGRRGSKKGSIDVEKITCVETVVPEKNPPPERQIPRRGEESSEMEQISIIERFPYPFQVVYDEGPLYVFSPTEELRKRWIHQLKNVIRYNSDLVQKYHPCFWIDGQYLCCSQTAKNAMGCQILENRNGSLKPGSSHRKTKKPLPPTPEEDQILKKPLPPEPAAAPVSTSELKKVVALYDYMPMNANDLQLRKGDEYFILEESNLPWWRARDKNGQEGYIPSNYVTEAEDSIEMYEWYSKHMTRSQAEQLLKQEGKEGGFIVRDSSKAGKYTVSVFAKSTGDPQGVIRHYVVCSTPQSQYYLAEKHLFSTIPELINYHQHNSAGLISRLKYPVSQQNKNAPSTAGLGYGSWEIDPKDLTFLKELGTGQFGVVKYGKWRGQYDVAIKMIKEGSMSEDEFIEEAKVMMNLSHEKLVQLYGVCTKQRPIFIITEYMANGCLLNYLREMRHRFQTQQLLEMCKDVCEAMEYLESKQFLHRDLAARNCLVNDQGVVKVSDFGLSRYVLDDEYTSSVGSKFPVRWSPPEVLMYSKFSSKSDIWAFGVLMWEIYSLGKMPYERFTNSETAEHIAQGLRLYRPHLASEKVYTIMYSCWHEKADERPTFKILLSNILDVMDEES
Description: as §1

CDK2 = target: T7, CDK2 (Homo sapiens, UniProt P24941)
T7 construct: T7 phage fusion (most kinases) or DNA tag for qPCR (HEK-293-made kinases); purchased DiscoverX (Fremont, CA); host or cells: E. coli BL21-derived host (T7 phage) or HEK-293
Description: as §1

CDK3 = target: T8, CDK3 (Homo sapiens, UniProt Q00526)
T8 construct: T7 phage fusion (most kinases) or DNA tag for qPCR (HEK-293-made kinases); purchased DiscoverX (Fremont, CA); host or cells: E. coli BL21-derived host (T7 phage) or HEK-293
Description: as §1

CHEK1 = target: T9, CHEK1 (Homo sapiens, UniProt O14757)
T9 construct: T7 phage fusion (most kinases) or DNA tag for qPCR (HEK-293-made kinases); purchased DiscoverX (Fremont, CA); host or cells: E. coli BL21-derived host (T7 phage) or HEK-293
T9 sequence (O14757 whole entry, the tested form may be a part): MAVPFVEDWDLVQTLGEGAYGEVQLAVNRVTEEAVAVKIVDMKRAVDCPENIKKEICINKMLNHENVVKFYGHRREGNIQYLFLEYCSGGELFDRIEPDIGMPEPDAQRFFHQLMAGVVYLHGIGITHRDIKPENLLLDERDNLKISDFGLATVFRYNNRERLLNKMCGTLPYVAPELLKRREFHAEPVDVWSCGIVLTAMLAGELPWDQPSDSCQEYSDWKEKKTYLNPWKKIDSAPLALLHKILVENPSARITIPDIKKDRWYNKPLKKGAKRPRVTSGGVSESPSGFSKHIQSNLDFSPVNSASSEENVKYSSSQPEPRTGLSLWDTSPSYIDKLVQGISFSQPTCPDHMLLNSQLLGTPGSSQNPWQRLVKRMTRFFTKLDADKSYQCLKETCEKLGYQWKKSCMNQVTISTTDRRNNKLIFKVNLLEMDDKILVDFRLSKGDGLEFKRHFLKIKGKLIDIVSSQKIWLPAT
Description: as §1

CSF1R = target: T10, CSF1R (Homo sapiens, UniProt P07333)
T10 construct: T7 phage fusion (most kinases) or DNA tag for qPCR (HEK-293-made kinases); purchased DiscoverX (Fremont, CA); host or cells: E. coli BL21-derived host (T7 phage) or HEK-293
Description: as §1

DCAMKL1 = target: T11, DCAMKL1 (Homo sapiens, UniProt O15075)
T11 construct: T7 phage fusion (most kinases) or DNA tag for qPCR (HEK-293-made kinases); purchased DiscoverX (Fremont, CA); host or cells: E. coli BL21-derived host (T7 phage) or HEK-293
Description: as §1

ERBB4 = target: T12, ERBB4 (Homo sapiens, UniProt Q15303)
T12 construct: T7 phage fusion (most kinases) or DNA tag for qPCR (HEK-293-made kinases); purchased DiscoverX; host or cells: E. coli BL21-derived host (T7 phage) or HEK-293
Description: as §1

ERK1 = target: T13, ERK1 (Homo sapiens, UniProt P27361)
T13 construct: T7 phage fusion (most kinases) or DNA tag for qPCR (HEK-293-made kinases); purchased DiscoverX; host or cells: E. coli BL21-derived host (T7 phage) or HEK-293
T13 sequence (P27361 whole entry, the tested form may be a part): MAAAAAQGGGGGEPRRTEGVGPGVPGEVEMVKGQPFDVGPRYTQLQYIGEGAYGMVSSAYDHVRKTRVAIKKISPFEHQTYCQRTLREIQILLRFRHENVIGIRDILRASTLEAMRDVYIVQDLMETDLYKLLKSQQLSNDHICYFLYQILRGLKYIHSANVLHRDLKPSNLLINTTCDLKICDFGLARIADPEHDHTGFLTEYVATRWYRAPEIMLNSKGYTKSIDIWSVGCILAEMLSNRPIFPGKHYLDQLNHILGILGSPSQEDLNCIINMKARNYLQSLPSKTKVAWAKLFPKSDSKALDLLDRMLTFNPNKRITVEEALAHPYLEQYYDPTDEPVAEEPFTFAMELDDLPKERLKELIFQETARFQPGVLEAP
Description: as §1

FLT3 = target: T14, FLT3 (Homo sapiens, UniProt P36888)
T14 construct: T7 phage fusion (most kinases) or DNA tag for qPCR (HEK-293-made kinases); purchased DiscoverX; host or cells: E. coli BL21-derived host (T7 phage) or HEK-293
T14 sequence (P36888 27-993): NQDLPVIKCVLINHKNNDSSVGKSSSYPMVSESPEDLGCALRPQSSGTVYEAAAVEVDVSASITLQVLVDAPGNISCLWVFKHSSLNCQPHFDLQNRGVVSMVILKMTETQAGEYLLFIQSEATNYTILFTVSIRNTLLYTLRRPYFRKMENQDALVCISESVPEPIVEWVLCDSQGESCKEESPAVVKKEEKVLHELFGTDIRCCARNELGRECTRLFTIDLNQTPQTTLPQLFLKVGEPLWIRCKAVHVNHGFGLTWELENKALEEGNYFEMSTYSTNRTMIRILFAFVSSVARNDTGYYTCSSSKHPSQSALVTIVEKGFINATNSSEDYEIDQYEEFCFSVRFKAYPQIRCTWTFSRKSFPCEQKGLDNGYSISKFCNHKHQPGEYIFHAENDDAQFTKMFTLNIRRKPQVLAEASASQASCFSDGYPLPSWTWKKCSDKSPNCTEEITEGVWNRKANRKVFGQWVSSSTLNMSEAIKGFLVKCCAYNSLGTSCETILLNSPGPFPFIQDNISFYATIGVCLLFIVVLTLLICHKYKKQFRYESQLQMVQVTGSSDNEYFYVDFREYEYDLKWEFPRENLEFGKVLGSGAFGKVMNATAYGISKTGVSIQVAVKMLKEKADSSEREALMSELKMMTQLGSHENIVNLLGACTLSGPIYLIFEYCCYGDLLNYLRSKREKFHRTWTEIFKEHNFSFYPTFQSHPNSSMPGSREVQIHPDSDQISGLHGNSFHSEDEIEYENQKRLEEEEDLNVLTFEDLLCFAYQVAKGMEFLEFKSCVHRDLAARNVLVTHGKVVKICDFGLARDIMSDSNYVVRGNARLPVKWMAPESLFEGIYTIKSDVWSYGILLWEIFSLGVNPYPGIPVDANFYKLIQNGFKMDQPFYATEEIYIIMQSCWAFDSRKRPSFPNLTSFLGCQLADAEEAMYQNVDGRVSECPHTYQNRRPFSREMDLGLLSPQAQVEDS
Description: as §1

HIPK2 = target: T15, HIPK2 (Homo sapiens, UniProt Q9H2X6)
T15 construct: T7 phage fusion (most kinases) or DNA tag for qPCR (HEK-293-made kinases); purchased DiscoverX; host or cells: E. coli BL21-derived host (T7 phage) or HEK-293
Description: as §1

IGF1R = target: T16, IGF1R (Homo sapiens, UniProt P08069)
T16 construct: T7 phage fusion (most kinases) or DNA tag for qPCR (HEK-293-made kinases); purchased DiscoverX; host or cells: E. coli BL21-derived host (T7 phage) or HEK-293
Description: as §1

IKK-alpha = target: T17, IKK-alpha (Homo sapiens, UniProt O15111)
T17 construct: T7 phage fusion (most kinases) or DNA tag for qPCR (HEK-293-made kinases); purchased DiscoverX; host or cells: E. coli BL21-derived host (T7 phage) or HEK-293
Description: as §1

INSR = target: T18, INSR (Homo sapiens, UniProt P06213)
T18 construct: T7 phage fusion (most kinases) or DNA tag for qPCR (HEK-293-made kinases); purchased DiscoverX; host or cells: E. coli BL21-derived host (T7 phage) or HEK-293
Description: as §1

LCK = target: T19, LCK (Homo sapiens, UniProt P06239)
T19 construct: T7 phage fusion (most kinases) or DNA tag for qPCR (HEK-293-made kinases); purchased DiscoverX; host or cells: E. coli BL21-derived host (T7 phage) or HEK-293
Description: as §1

MAPKAPK2 = target: T20, MAPKAPK2 (Homo sapiens, UniProt P49137)
T20 construct: T7 phage fusion (most kinases) or DNA tag for qPCR (HEK-293-made kinases); purchased DiscoverX; host or cells: E. coli BL21-derived host (T7 phage) or HEK-293
T20 sequence (P49137 whole entry, the tested form may be a part): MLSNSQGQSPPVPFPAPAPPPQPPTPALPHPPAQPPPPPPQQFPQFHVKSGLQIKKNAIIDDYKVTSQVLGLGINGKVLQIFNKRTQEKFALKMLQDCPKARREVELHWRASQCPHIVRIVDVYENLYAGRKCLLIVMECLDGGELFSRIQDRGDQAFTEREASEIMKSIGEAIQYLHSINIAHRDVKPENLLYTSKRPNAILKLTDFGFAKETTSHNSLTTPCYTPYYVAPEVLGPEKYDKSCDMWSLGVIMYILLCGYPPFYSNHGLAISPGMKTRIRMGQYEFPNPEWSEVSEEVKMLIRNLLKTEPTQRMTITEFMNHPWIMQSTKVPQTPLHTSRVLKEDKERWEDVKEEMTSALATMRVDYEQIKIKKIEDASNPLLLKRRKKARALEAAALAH
Description: as §1

MKNK1 = target: T21, MKNK1 (Homo sapiens, UniProt Q9BUB5)
T21 construct: T7 phage fusion (most kinases) or DNA tag for qPCR (kinases made in HEK-293); purchased DiscoverX; host or cells: E. coli BL21-derived host (T7 phage) or HEK-293
Description: as §1

PAK1 = target: T22, PAK1 (Homo sapiens, UniProt Q13153)
T22 construct: T7 phage fusion (most kinases) or DNA tag for qPCR (kinases made in HEK-293); purchased DiscoverX; host or cells: E. coli BL21-derived host (T7 phage) or HEK-293
Description: as §1

PAK4 = target: T23, PAK4 (Homo sapiens, UniProt O96013)
T23 construct: T7 phage fusion (most kinases) or DNA tag for qPCR (kinases made in HEK-293); purchased DiscoverX; host or cells: E. coli BL21-derived host (T7 phage) or HEK-293
Description: as §1

PIK3CA = target: T24, PIK3CA (Homo sapiens, UniProt P42336)
T24 construct: T7 phage fusion (most kinases) or DNA tag for qPCR (kinases made in HEK-293); purchased DiscoverX; host or cells: E. coli BL21-derived host (T7 phage) or HEK-293
Description: as §1

PIK3CG = target: T25, PIK3CG (Homo sapiens, UniProt P48736)
T25 construct: T7 phage fusion (most kinases) or DNA tag for qPCR (kinases made in HEK-293); purchased DiscoverX; host or cells: E. coli BL21-derived host (T7 phage) or HEK-293
Description: as §1

PIM2 = target: T26, PIM2 (Homo sapiens, UniProt Q9P1W9)
T26 construct: T7 phage fusion (most kinases) or DNA tag for qPCR (kinases made in HEK-293); purchased DiscoverX; host or cells: E. coli BL21-derived host (T7 phage) or HEK-293
Description: as §1

PIM3 = target: T27, PIM3 (Homo sapiens, UniProt Q86V86)
T27 construct: T7 phage fusion (most kinases) or DNA tag for qPCR (kinases made in HEK-293); purchased DiscoverX; host or cells: E. coli BL21-derived host (T7 phage) or HEK-293
Description: as §1

PKAC-alpha = target: T28, PKAC-alpha (Homo sapiens, UniProt P17612)
T28 construct: T7 phage fusion (most kinases) or DNA tag for qPCR (kinases made in HEK-293); purchased DiscoverX; host or cells: E. coli BL21-derived host (T7 phage) or HEK-293
Description: as §1

PLK3 = target: T29, PLK3 (Homo sapiens, UniProt Q9H4B4)
T29 construct: T7 phage fusion (most kinases) or DNA tag for qPCR (kinases made in HEK-293); purchased DiscoverX; host or cells: E. coli BL21-derived host (T7 phage) or HEK-293
Description: as §1

TGFBR1 = target: T30, TGFBR1 (Homo sapiens, UniProt P36897)
T30 construct: T7 phage fusion (most kinases) or DNA tag after HEK-293 expression; purchased DiscoverX (Fremont, CA), ScanEDGE; host or cells: T7 phage in E. coli BL21-derived host, or HEK-293
Description: as §1

TIE2 = target: T31, TIE2 (Homo sapiens, UniProt Q02763)
T31 construct: T7 phage fusion (most kinases) or DNA tag after HEK-293 expression; purchased DiscoverX (Fremont, CA), ScanEDGE; host or cells: T7 phage in E. coli BL21-derived host, or HEK-293
Description: as §1

TSSK1B = target: T32, TSSK1B (Homo sapiens, UniProt Q9BXA7)
T32 construct: T7 phage fusion (most kinases) or DNA tag after HEK-293 expression; purchased DiscoverX (Fremont, CA), ScanEDGE; host or cells: T7 phage in E. coli BL21-derived host, or HEK-293
Description: as §1

ULK2 = target: T33, ULK2 (Homo sapiens, UniProt Q8IYT8)
T33 construct: T7 phage fusion (most kinases) or DNA tag after HEK-293 expression; purchased DiscoverX (Fremont, CA), ScanEDGE; host or cells: T7 phage in E. coli BL21-derived host, or HEK-293
T33 sequence (Q8IYT8 whole entry, the tested form may be a part): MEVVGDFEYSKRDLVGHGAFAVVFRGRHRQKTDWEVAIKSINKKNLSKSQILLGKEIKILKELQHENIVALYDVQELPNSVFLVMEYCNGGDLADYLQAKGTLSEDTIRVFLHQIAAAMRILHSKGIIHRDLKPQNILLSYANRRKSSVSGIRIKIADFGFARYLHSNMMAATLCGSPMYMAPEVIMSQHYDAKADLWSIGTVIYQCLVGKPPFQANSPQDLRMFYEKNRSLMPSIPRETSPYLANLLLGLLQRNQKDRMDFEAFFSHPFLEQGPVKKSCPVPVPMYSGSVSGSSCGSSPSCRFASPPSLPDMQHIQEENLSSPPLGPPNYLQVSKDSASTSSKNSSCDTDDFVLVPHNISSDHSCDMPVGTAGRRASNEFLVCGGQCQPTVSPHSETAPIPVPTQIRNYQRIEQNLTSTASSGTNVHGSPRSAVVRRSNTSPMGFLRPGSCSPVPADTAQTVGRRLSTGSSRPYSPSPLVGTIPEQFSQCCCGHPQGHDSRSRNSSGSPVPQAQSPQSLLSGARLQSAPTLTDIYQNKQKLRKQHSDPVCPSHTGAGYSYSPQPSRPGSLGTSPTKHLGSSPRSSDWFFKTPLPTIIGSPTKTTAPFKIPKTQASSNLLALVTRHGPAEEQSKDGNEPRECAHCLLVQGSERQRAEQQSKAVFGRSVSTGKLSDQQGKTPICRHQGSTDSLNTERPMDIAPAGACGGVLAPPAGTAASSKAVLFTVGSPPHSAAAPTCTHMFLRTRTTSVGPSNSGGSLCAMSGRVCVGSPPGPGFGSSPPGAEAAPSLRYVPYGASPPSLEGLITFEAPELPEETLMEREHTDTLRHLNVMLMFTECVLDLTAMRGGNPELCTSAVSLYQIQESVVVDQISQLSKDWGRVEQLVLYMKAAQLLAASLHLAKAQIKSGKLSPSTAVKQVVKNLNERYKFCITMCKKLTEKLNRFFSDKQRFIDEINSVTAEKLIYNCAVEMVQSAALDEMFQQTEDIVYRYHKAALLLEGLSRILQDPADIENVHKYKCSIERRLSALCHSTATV
Description: as §1

remaining binding at 0.071 µM (ABL1): 0.2%
remaining binding at 0.071 µM (ALK): 23%
remaining binding at 0.071 µM (AURKA): 12%
remaining binding at 0.071 µM (BMPR2): 87%
remaining binding at 0.071 µM (BRAF): 66%
remaining binding at 0.071 µM (BTK): 0.45%
remaining binding at 0.071 µM (CDK2): 99%
remaining binding at 0.071 µM (CDK3): 80%
remaining binding at 0.071 µM (CHEK1): 42%
remaining binding at 0.071 µM (CSF1R): 0.85%
remaining binding at 0.071 µM (DCAMKL1): 89%
remaining binding at 0.071 µM (ERBB4): 6.1%
remaining binding at 0.071 µM (ERK1): 100%
remaining binding at 0.071 µM (FLT3): 20%
remaining binding at 0.071 µM (HIPK2): 100%
remaining binding at 0.071 µM (IGF1R): 100%
remaining binding at 0.071 µM (IKK-alpha): 93%
remaining binding at 0.071 µM (INSR): 56%
remaining binding at 0.071 µM (LCK): 0.75%
remaining binding at 0.071 µM (MAPKAPK2): 85%
remaining binding at 0.071 µM (MKNK1): 76%
remaining binding at 0.071 µM (PAK1): 6.6%
remaining binding at 0.071 µM (PAK4): 88%
remaining binding at 0.071 µM (PIK3CA): 84%
remaining binding at 0.071 µM (PIK3CG): 80%
remaining binding at 0.071 µM (PIM2): 97%
remaining binding at 0.071 µM (PIM3): 84%
remaining binding at 0.071 µM (PKAC-alpha): 100%
remaining binding at 0.071 µM (PLK3): 90%
remaining binding at 0.071 µM (TGFBR1): 90%
remaining binding at 0.071 µM (TIE2): 32%
remaining binding at 0.071 µM (TSSK1B): 83%
remaining binding at 0.071 µM (ULK2): 31%
SMILES: COc1ccc(N2C(=O)N(c3c(C)cccc3C)Cc3cnc(Nc4ccc(C5CCN(C)CC5)c(OC)c4)nc32)c(OC)c1 [YKL-05-093]
